From article PMC7562719, “Discovery of a CNS penetrant small molecule SMN2 splicing modulator with improved tolerability for spinal muscular atrophy” (Scientific Reports, 2020)
Marks after values point to notes of the source that are not given here.

Columns and labels:
TK6 cells = conditions: positive control 6 µg/mL (21 µM), 3 h + S9 mix
Description: These articles have been recommended for use in the OECD test guideline (Test No. 487)[49]. For metabolic activation, pre-cultured TK6 cells with the culture medium were supplemented with Sprague–Dawley rat liver mix (S9 mix, IEDA TRADING CORPORATION, Japan) at 3.33 vol%. Then, compound was mixed with the cell suspension and treated under the following treatment conditions: • Short-term treatment for 3 h without S9 mix, followed by a 21-h culture (−S9 mix assay), • Short-term treatment for 3 h with S9 mix, followed by a 21-h culture (+S9 mix assay), or • Continuous treatment for 24 h without S9 mix (24-h assay). For treatment conditions 1 and 2, the cells in each well were centrifuged after the 3-h treatment, the supernatants were discarded, and the cells were washed twice with culture medium. The cells were further cultured with fresh culture medium for 21 h. The compound-treated cells were examined by the unaided eye for precipitation of compound at the start and end of treatment. After treatment, the rest of each cell suspension was centrifuged and then the cells were suspended in a 0.075 mol/L KCl solution at room temperature for 10 min. Then, 25 vol% acetic acid containing methanol was added and the centrifuged cells were fixed. The fixed cells were resuspended in a small amount of 3 vol% acetic acid containing methanol, which was changed two times by centrifugation. Finally, a drop of the cell suspension was transferred onto a slide and dried at room temperature. The slides were stained at room temperature in a 3 vol% Giemsa solution (Merck KGaA) diluted with Sörensen phosphate buffer (1/15 mol/L, pH 6.8, Muto Pure Chemicals Co. Ltd.). Four slides per dose (2 slides per well) were prepared. Each slide was coded randomly. The test was conducted at the following doses of TEC-1. -S9 mix assay: 1.5, 1.7, 1.9, 2.1, 2.3, 2.5, 2.7, 2.9, and 3.1 µg/mL, + S9 mix assay: 1.9, 2.1, 2.3, 2.5, 2.7, 2.9, 3.1, 3.3, and 3.5 µg/mL, 24-h assay: 0.9, 1.1, 1.3, 1.5, 1.7, 1.9, 2.1, 2.3, and 2.5 µg/mL. To perform scoring for compound and negative control groups, the number of cells in the suspensions was counted using a Coulter Counter (Z2; Beckman Coulter, Inc.). The positive control groups were not determined. A portion (0.5 mL) of the cell suspension was diluted with 20 mL of Isoton II, and 0.5 mL of this solution was used for cell counts. The cell number per 1 mL at each culture was calculated by the following formula. Cellnumber/mL=Dilutionfactor×valueof1stcount+valueof2ndcount/2×2
The population doubling (PD) and relative population doubling (RPD) at each concentration was calculated by the following formula. PD=log10cell number at the end of culture/cell number at the start of treatment∗/log102∗:1×10^5cells/mL.
RPD%=PD of the compound-treated group/PD of the negative control group×100 For the treated groups, the 3 consecutive concentrations were selected as follows. […] For all concentrations, 4000 mononuclear cells with cytoplasm were analyzed and the number of cells with micronucleus (micronuclei) was counted using a microscope (× 600). Micronucleus is identified as a round or oval small nucleus in the cytoplasm with the same staining intensity as the main nucleus. The diameter of each micronucleus should be less than 1/2 of the diameter of the main nucleus. Two investigators observed the slides. Each investigator scored 1000 cells for the frequency of micronucleated cells. Data from the two investigators were combined for each culture and the combined data from duplicate cultures were pooled for each concentration for each treatment condition. A cell having one or more micronuclei was recorded as a micronucleated cell.

FL-SMN2 mRNA = assay: qPCR of FL-SMN2 transcripts in SMA type II fibroblasts (GM03813); type: cell-based, human; conditions: 24 h, 50% total FL-SMN2 mRNA increase, normalized to GAPDH, 95% CI in brackets
Description: (§1) GM03813 fibroblasts, GM24468-derived MNs, NRK-49F, MDCK, CV-1, or NCMDF cells were plated at a density of 0.5 or 1.5 × 10^4, 4 × 10^4, 5 × 10^3, 5 × 10^3, 8 × 10^3, or 6 × 10^3 cells/well on 96-well plates, respectively. After approximately 6 h, the medium was added with the same volume of culture medium containing each compound at the concentration of 0.06, 0.2, 0.6, 0.2, and 6 µM. The final concentration of DMSO was adjusted to 0.1% in culture condition.
(§2) All cells were treated with above compounds for 24 h and washed once with Dulbecco’s Phosphate-Buffered Saline without Ca and Mg [D-PBS (–)] (Wako or Nakarai Tesque). In case of using GM03813 or GM24468-derived MNs, cell lysis and reverse transcription were carried out using SuperPrep Cell Lysis & RT Kit for qPCR in accordance with manufacturer’s recommendations (Toyobo, Japan). qPCR was performed using THUNDERBIRD Probe qPCR Mix (Toyobo). The final concentrations of primers and probes were adjusted to 0.4 µM and 0.15 µM, respectively (Supplementary Table 1). Cycle conditions were as follows; 95 °C for 1 min; followed by 40 cycles of denaturation at 95 °C for 15 s; annealing and elongation at 60 °C for 1 min in the ViiA7 RT-PCR system (Thermo Fisher Scientific). The copy numbers of each target were normalized to those of GAPDH.

FOXM1b = assay: qPCR of FOXM1b/c variant in GM03813 fibroblasts; type: cell-based, human
Description: as §1, §2

FOXM1ΔC = assay: qPCR of FOXM1ΔC variant in GM03813 fibroblasts; type: cell-based, human; conditions: 24 h, 300% total target mRNA increase, 95% CI in brackets
Description: as §1, §2

FOXM1a = assay: qPCR of FOXM1a variant in GM03813 fibroblasts; type: cell-based, human; conditions: 24 h, 200% total target mRNA increase, 95% CI in brackets
Description: as §1, §2

FOXM1 = assay: qPCR of FOXM1 transcripts in cynomolgus monkey fibroblasts (NCMDF); type: cell-based; conditions: 24 h
Description: as §1
In the instances of using NRK-49F, MDCK, CV-1 or NCMDF, cell lysis and reverse transcription were carried out using Custom Cells to CT Lysis Components (Ambion) and Cells-to-CT RT Components (Ambion), each in accordance with manufacturer’s recommendations. qPCR was conducted using TaqMan Fast Advanced Master Mix. The final concentrations of primers and probes were adjusted to 0.4 µM and 0.15 µM, respectively. Cycle conditions were as follows; 50 °C for 2 min and 95 °C for 2 s; followed by 40 cycles of denaturation at 95 °C for 1 s; annealing and elongation at 60 °C for 20 s in the ABI7900HT RT-PCR system (Applied Biosystems, USA). The relative quantification in gene expression was determined using the 2−ΔΔCt method.

[1] = set-up: method as in PMID 30044619; conditions: in vitro and in vivo; cited from earlier work
[2] = set-up: method as in PMID 30302786; conditions: Phase I clinical trial, 18 mg/individual; cited from earlier work
cynomolgus monkeys = conditions: cynomolgus monkey, in vivo; cited from earlier work

Compound | Micronucleated cells Well 1 (TK6 cells) | Micronucleated cells Well 2 (TK6 cells) | Micronucleated cells Total (TK6 cells; counted in 4000 cells) | Micronucleated cells (%) (TK6 cells; p < 0.01) | EC1.5× FL-SMN2 (FL-SMN2 mRNA) | Selectivity FOXM1b /FL-SMN2 (FOXM1b; EC50 of FOXM1b divided by EC1.5× of FL-SMN2) | EC50 (FOXM1b; Homo sapiens, Fibroblast, GM03813 fibroblasts, 24 h, 50% total target mRNA reduction, 95% CI in brackets) [nM] | EC4.0× FOXM1ΔC (FOXM1ΔC) | EC3.0× FOXM1a (FOXM1a) | FOXM1 splicing in cynomolgus monkey cells (FOXM1) | micronucleus induction [1] | exposure cap, AUC0–24h in plasma [2] [ng·h/mL] | findings in 39-week toxicological study (cynomolgus monkeys)
O=P1(N(CCCl)CCCl)NCCCO1 (stereo not shown) [CP, cyclophosphamide, reference compound] | 39 | 46 | 85 | (2.13) ** % | – | – | – | – | – | – | – | – | –
Cc1cn2nc(-c3cc(=O)n4cc(N5CCNC6(CC6)C5)ccc4n3)cc(C)c2n1 [Risdiplam] | – | – | – | – | 15.8 (8.81–32.8) nM | 8 | 124 | 38.9 (6.98–85.0) nM | 24.2 (4.49–78.5) nM | FOXM1 mis-splicing was similarly observed | induces micronucleation in vitro and in vivo | 1500 | pathological intestinal and pancreatic changes, and irreversible retinal degeneration
